Literature values in patent US6610471B1, “Methods and compositions to investigate infection by hepatitis B virus and agents to prevent and treat the infection” (priority 1998, dated 2003).

System: chronic HBV infection
Conditions: patients receiving interferon-α treatment, long-term studies; cited from earlier work

## interferon-α
  patients with loss of circulating HBV antigens and improved survival rate: about 30 % of patients
